Test results reported in patent publication US20260207504A1, “STABILIZATION OF LIPID NANOPARTICLE FORMULATIONS” (Eli Lilly and Company, priority 2022, published 2026).

Test: Lipid chemical stability in PBS or histidine buffer solution (LC-MS)
Type: physicochemical
Settings: for primary degradation pathway: LC-MS; for stability in BT5933 glass vials relative to COP vials: diluted with PBS buffer
Protocol: Stock MC3 lipidic solutions were prepared by dissolving MC3 in an ethanolic solution to a final concentration of 4 mg/mL (e.g., 6 mM). Similarly, stock lipidic DOTAP solutions were prepared by dissolving DOTAP in an ethanolic solution to a final concentration of 4 mg/mL. Stock solutions of phosphate buffered saline (1×, pH 7.4) were used. Final lipidic solutions were prepared by mixing PBS stock to the lipidic stock in a ratio of 3:1 (e.g., PBS stock:DOTAP stock in ethanol=3:1; PBS stock:MC3 stock in ethanol=3:1). Solutions were stored in either glass (BT5933) or polymer (COP) vials.
Dilute lipidic solutions were frozen at −70° C. before being thawed and stored at either 5° C., 25° C., or 40° C. for either 1 week, 2 weeks, or 4 weeks. At each timepoint, (e.g., after 1 week, 2 weeks, or 4 weeks) the lipid solution was analyzed via LC-MS to determine the extent of hydrolysis and/or oxidation present.
MC3 and DOTAP lipids were prepared using either PBS or Histidine buffers. Ethanolic stock solutions of MC3 and DOTAP were prepared as described in Example 1. PBS-based solutions were prepared by diluting the stock lipid solutions, respectively, by 3:1 (PBS:lipid in ethanol (vol/vol)) using 1× PBS, pH 7.4. Histidine-based solutions were also prepared by diluting the stock lipidic solution by 3:1 (histidine:lipid in ethanol vol/vol) using a histidine buffer (10 mM, pH 6.0). Solutions were filled into BT5933, COP, or Valor glass vials at 1 mL aliquots and put on stability. Initial control samples were immediately frozen at −70° C.
Filled vials were stored at either 5° C., 25° C., or 40° C. for either 1 week, 2 weeks, or 4 weeks. At each timepoint, (e.g., after 1 week, 2 weeks, or 4 weeks) the lipid solution was analyzed via LC-MS to determine the extent of hydrolysis and/or oxidation present.

[1] = diluted in 1X PBS pH 7.4, 5, 25, 40° C., 1, 2, 4 weeks
[2] = histidine buffer (10 mM, pH 6.0) vs PBS, 5, 25, 40° C., 1-4 weeks

degree of oxidation [2]	oxidation rate (storage in Valor glass vials vs other vials)	Structure (SMILES)	% lipid intact [1]	primary degradation pathway (diluted in 1X PBS pH 7.4)	stability in BT5933 glass vials relative to COP vials	% hydrolysis [2]	% lipid intact [2]
		CCCCCCCC/C=C\CCCCCCCC(=O)OCC(C[N+](C)(C)C)OC(=O)CCCCCCC/C=C\CCCCCCCC (stereo not drawn) [DOTAP, 1,2-dioleoyl-3-trimethylammonium-propane]	decreased with increasing storage time	hydrolysis	better stability	decreased the % hydrolysis of DOTAP relative to storage in PBS	stabilized the % DOTAP intact at all storage conditions tested
reduced the degree of oxidation	lower oxidation rate	CCCCC/C=C\C/C=C\CCCCCCCCC(CCCCCCCC/C=C\C/C=C\CCCCC)OC(=O)CCCN(C)C [MC3, 4-(dimethylamino)-butanoic acid, (10Z,13Z)-1-(9Z,12Z)-9,12-octadecadien-1-yl-10,13-nonadecadien-1-yl ester]	lower than the % DOTAP for the same time points	oxidation	improved stability relative to COP vials	significantly reduced lipid hydrolysis of MC3	increasing the % MC3 intact at all storage conditions tested
